Results as given in patent US20040045805A1, “Novel process for preparing and harvesting crystalline particles” (priority 2000, published 2004).

Assay: Malvern laser diffraction particle sizing
Assay type: physicochemical
Settings: Malvern Mastersizer X; dispersant iso octane/lecithin 0.05% w/w; sonicated 3 minutes; one analysis per sample
Procedure: Particles of Examples 1A and 1B were analysed using Malvern laser diffraction particle sizing. Instrument: Malvern Mastersizer X Lens: 45 mm Reverse Fourier Analysis: 0607 presentation code Dispersant: Iso Octane/Lecithin 0.05% w/w Pre dispersion: Sonicate for 3 minutes Obscuration: 10% to 16% One analysis per sample was carried out. The median particle size (D50), particle size at 90% undersize (D90) and particle size at 10% undersize (D10) were used as responses to characterise the medium, course, and fine particles.

D10 (particle size at 10% undersize) [μm] | D50 (median particle size) [μm] | D90 (particle size at 90% undersize) [μm] | Compound
1.01 | 2.68 | 5.93 | CCC(=O)O[C@]1(C(=O)SCF)[C@H](C)C[C@H]2[C@@H]3C[C@H](F)C4=CC(=O)C=C[C@]4(C)[C@@]3(F)[C@@H](O)C[C@@]21C [Example 1A, fluticasone propionate]
1.77 | 3.65 | 7.24 | CCC(=O)O[C@]1(C(=O)SCF)[C@H](C)C[C@H]2[C@@H]3C[C@H](F)C4=CC(=O)C=C[C@]4(C)[C@@]3(F)[C@@H](O)C[C@@]21C [Example 1B, fluticasone propionate]
